Test results reported in ChEMBL document CHEMBL4507326, “Data for DCP probe TP-030-2” (2021).
Calls of active or inactive are those of the source.

Legend:
[1] = target: Alpha-2B adrenergic receptor (Homo sapiens, UniProt P18089); assay: GPCRScan assay: inhibition of Alpha2B; design: radioligand conc. used [nm] 1.5 – 2.0, parental cells HEKT
[2] = target: Voltage-dependent N-type calcium channel subunit alpha-1B (Homo sapiens) (UniProt Q00975); assay: Inhibition of Calcium Channel N-Type at 10 µM in the Eurofins-Panlabs radioligand binding assay (Eurofins_assay_216000); conditions: Rattus norvegicus; Compound concentration 10.0 uM
[3] = target: Cysteinyl leukotriene receptor 1 (Homo sapiens) (UniProt Q9Y271); assay: Inhibition of Leukotriene, Cysteinyl CysLT1 at 10 µM in the Eurofins-Panlabs radioligand binding assay (Eurofins_assay_250460); design: ligand concentration 0.3 nM, non-specific ligand with concentration 0.3 µM Leukotriene D4, incubation time 30 min, incubation temperature 25 °C; conditions: Compound concentration 10.0 uM
HT-29 = assay: HT29 necroptosis assay; assay type: functional, cell-based; conditions: Homo sapiens
[4] = target: RAC-beta serine/threonine-protein kinase (Homo sapiens, UniProt P31751); assay: Akt2 [PKBbeta(AKT2CGY1)] Takeda global kinase panel
[5] = target: RAC-gamma serine/threonine-protein kinase (Homo sapiens, UniProt Q9Y243); assay: Akt3 [PKBgamma(AKT3LGY1)] Takeda global kinase panel
Aurora kinase A = Aurora kinase A (Homo sapiens, UniProt O14965); assay: AurA [Aur2(AURALGF1)] Takeda global kinase panel
[6] = target: Bone morphogenetic protein receptor type-2 (Homo sapiens, UniProt Q13873); assay: BMPR2(BMR2LGN1) Takeda global kinase panel
[7] = target: Mitotic checkpoint serine/threonine-protein kinase BUB1 (Homo sapiens, UniProt O43683); assay: Bub1(BUB1LGRL) Takeda global kinase panel
[8] = target: Cyclin-dependent kinase 18 (Homo sapiens, UniProt Q07002); assay: PCTAIRE3(CD18SGS1) Takeda global kinase panel
[9] = target: Serine/threonine-protein kinase Chk1 (Homo sapiens, UniProt O14757); assay: CHK1(CHE1CGP1) Takeda global kinase panel
[10] = target: Dual specificity protein kinase CLK2 (Homo sapiens, UniProt P49760); assay: CLK2(CLK2LGF1) Takeda global kinase panel
[11] = target: Dual specificity protein kinase CLK3 (Homo sapiens, UniProt P49761); assay: CLK3(CLK3LGY1) Takeda global kinase panel
[12] = target: Casein kinase I isoform delta (Homo sapiens, UniProt P48730); assay: CK1delta(CS1DLGI1) Takeda global kinase panel
[13] = target: Death-associated protein kinase 1 (Homo sapiens, UniProt P53355); assay: DAPK1(DAP1LGF1) Takeda global kinase panel
[14] = target: Dual specificity tyrosine-phosphorylation-regulated kinase 1B (Homo sapiens, UniProt Q9Y463); assay: DYRK1B(DY1BLHY1) Takeda global kinase panel
[15] = target: Serine/threonine-protein kinase/endoribonuclease IRE1 (Homo sapiens, UniProt O75460); assay: IRE1(ERN1PHY1) Takeda global kinase panel
[16] = target: Vascular endothelial growth factor receptor 1 (Homo sapiens, UniProt P17948); assay: FLT1(FLT1LGC5) Takeda global kinase panel
Insulin receptor = Insulin receptor (Homo sapiens, UniProt P06213); assay: InSR(INSRLGY1) Takeda global kinase panel
[17] = target: Mitogen-activated protein kinase kinase kinase 11 (Homo sapiens, UniProt Q16584); assay: MLK3(M311LGF1) Takeda global kinase panel
[18] = target: Mitogen-activated protein kinase kinase kinase 12 (Homo sapiens, UniProt Q12852); assay: DLK(M312CGY1) Takeda global kinase panel
[19] = target: Mitogen-activated protein kinase 13 (Homo sapiens, UniProt O15264); assay: p38delta(MP13LGP1) Takeda global kinase panel
[20] = target: Microtubule-associated serine/threonine-protein kinase 4 (Homo sapiens, UniProt O15021); assay: MAST4(MAS4LGRD) Takeda global kinase panel
[21] = target: Maternal embryonic leucine zipper kinase (Homo sapiens, UniProt Q14680); assay: MELK(MELKLGF1) Takeda global kinase panel
[22] = target: Mixed lineage kinase domain-like protein (Homo sapiens, UniProt Q8NB16); assay: MLKL(MLKLPHY1) Takeda global kinase panel
[23] = target: Myosin light chain kinase (Homo sapiens, UniProt Q32MK0); assay: caMLCK(MYL3LGF1) Takeda global kinase panel
[24] = target: Serine/threonine-protein kinase PAK 4 (Homo sapiens, UniProt O96013); assay: PAK4(PAK4CGY1) Takeda global kinase panel
[25] = target: Platelet-derived growth factor receptor beta (Homo sapiens, UniProt P09619); assay: PDGFRbeta(PDGBIHC1) Takeda global kinase panel
[26] = target: Phosphorylase b kinase gamma catalytic chain, skeletal muscle/heart isoform (Homo sapiens, UniProt Q16816); assay: PhKgamma1(PHG1LHY1) Takeda global kinase panel
[27] = target: Serine/threonine-protein kinase pim-2 (Homo sapiens, UniProt Q9P1W9); assay: Pim2(PIM2LHY1) Takeda global kinase panel
[28] = target: Serine/threonine-protein kinase PLK4 (Homo sapiens, UniProt O00444); assay: PLK4(PLK4LGF1) Takeda global kinase panel
[29] = target: Serine/threonine-protein kinase D3 (Homo sapiens, UniProt O94806); assay: PKD3(PRD3LGG5) Takeda global kinase panel
[30] = target: Ribosomal protein S6 kinase alpha-2 (Homo sapiens, UniProt Q15349); assay: RSK3(R6A1CGE1) Takeda global kinase panel
[31] = target: Ribosomal protein S6 kinase alpha-5 (Homo sapiens, UniProt O75582); assay: MSK1(R6A5LGY1) Takeda global kinase panel
[32] = target: Serine/threonine-protein kinase SIK1 (Homo sapiens, UniProt P57059); assay: SIK(SIK1LHY1) Takeda global kinase panel
[33] = target: Serine/threonine-protein kinase 3 (Homo sapiens, UniProt Q13188); assay: MST2(STK3LGF1) Takeda global kinase panel
[34] = target: Serine/threonine-protein kinase tousled-like 1 (Homo sapiens, UniProt Q9UKI8); assay: TLK1(TLK1LGP1) Takeda global kinase panel
Wee1-like protein kinase = Wee1-like protein kinase (Homo sapiens, UniProt P30291); assay: Wee1(WEE1LGF1) Takeda global kinase panel
[35] = target: Hormonally up-regulated neu tumor-associated kinase (Homo sapiens, UniProt P57058); assay: HUNK(HUNKLGRN) Takeda global kinase panel
[36] = target: Phosphatidylinositol 4,5-bisphosphate 3-kinase catalytic subunit beta isoform (Homo sapiens, UniProt P42338); assay: PIK3CB(PI3BCGRK) Takeda global kinase panel
[37] = target: Alpha-2B adrenergic receptor (Homo sapiens) (UniProt P18089); conditions: Compound concentration 10.0 uM
[38] = target: Muscarinic acetylcholine receptor M1 (Homo sapiens) (UniProt P11229); conditions: Compound concentration 10.0 uM
[39] = target: Alpha-1D adrenergic receptor (Homo sapiens) (UniProt P25100); conditions: Compound concentration 10.0 uM
[40] = target: Muscarinic acetylcholine receptor M1 (Homo sapiens) (UniProt P11229); conditions: Compound concentration 10.0 uM; remark: listed apart in the source
[41] = target: Sodium-dependent noradrenaline transporter (Homo sapiens) (UniProt P23975); conditions: Compound concentration 10.0 uM

Chain of Alpha-2B adrenergic receptor (P18089 whole entry): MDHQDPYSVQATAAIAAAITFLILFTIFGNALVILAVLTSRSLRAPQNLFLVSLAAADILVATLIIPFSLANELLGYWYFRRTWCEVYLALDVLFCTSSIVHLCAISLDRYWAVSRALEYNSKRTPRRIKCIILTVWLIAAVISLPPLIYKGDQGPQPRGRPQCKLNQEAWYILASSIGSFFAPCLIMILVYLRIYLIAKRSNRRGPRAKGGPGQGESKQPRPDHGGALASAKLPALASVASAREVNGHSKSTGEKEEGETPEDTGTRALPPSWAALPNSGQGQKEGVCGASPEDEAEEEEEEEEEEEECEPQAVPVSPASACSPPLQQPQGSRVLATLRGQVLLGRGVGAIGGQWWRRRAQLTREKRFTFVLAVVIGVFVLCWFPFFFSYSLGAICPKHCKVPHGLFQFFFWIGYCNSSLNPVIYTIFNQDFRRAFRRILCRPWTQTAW
Chain of Muscarinic acetylcholine receptor M1 (Homo sapiens) (P11229 whole entry): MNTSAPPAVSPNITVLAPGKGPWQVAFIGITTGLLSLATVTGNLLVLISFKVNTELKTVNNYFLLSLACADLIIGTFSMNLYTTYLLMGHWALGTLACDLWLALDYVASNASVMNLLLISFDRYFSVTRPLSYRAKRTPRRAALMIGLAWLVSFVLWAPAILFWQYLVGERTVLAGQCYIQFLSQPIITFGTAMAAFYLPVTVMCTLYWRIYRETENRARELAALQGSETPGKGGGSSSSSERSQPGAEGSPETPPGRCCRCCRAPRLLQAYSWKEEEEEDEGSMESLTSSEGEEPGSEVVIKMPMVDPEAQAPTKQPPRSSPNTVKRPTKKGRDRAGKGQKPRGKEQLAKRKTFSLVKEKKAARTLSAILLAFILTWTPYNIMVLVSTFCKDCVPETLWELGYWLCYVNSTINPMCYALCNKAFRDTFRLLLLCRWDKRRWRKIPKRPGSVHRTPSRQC
Chain of Hormonally up-regulated neu tumor-associated kinase (P57058 whole entry, canonical isoform): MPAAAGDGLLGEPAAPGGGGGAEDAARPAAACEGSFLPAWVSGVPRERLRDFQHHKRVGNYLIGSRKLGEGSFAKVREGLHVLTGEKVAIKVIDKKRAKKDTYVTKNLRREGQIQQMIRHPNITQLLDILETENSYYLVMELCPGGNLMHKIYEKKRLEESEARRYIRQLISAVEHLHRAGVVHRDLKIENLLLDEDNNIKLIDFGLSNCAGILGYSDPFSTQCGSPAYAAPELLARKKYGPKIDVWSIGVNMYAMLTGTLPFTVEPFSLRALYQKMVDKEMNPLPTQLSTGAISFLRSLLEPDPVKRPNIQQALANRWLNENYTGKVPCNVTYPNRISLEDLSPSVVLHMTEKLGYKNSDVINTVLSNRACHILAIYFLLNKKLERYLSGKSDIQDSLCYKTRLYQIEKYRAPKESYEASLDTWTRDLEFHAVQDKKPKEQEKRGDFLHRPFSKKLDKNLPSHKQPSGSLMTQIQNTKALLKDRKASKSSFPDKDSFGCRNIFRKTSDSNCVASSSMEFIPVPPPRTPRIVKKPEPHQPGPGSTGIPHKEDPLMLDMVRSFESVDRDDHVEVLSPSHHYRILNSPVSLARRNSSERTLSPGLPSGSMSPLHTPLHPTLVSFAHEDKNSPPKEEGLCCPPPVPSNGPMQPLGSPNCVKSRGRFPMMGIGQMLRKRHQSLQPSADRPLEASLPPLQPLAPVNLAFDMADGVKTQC
Chain of Mitogen-activated protein kinase kinase kinase 12 (Q12852 whole entry): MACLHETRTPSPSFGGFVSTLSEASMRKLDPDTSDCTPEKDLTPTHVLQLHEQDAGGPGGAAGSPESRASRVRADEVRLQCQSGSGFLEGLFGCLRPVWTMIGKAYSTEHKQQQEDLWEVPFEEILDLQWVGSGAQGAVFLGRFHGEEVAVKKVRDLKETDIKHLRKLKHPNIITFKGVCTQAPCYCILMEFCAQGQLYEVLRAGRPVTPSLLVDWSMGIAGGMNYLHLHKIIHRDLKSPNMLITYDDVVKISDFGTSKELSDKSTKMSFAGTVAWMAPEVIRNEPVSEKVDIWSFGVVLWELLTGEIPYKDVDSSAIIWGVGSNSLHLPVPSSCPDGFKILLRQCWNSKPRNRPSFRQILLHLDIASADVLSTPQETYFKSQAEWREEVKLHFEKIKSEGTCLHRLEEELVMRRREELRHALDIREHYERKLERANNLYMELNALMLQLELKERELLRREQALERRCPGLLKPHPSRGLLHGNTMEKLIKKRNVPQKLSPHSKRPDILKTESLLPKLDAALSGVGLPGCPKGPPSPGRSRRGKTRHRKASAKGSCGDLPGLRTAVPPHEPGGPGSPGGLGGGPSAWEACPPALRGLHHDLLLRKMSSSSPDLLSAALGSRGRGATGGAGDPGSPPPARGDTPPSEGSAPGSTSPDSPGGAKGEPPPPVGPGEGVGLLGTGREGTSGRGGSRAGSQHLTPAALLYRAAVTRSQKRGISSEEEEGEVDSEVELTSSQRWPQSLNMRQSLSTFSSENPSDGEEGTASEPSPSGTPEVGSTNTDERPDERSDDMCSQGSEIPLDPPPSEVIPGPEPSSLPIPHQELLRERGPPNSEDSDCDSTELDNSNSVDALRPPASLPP
Chain of Serine/threonine-protein kinase PLK4 (O00444 whole entry): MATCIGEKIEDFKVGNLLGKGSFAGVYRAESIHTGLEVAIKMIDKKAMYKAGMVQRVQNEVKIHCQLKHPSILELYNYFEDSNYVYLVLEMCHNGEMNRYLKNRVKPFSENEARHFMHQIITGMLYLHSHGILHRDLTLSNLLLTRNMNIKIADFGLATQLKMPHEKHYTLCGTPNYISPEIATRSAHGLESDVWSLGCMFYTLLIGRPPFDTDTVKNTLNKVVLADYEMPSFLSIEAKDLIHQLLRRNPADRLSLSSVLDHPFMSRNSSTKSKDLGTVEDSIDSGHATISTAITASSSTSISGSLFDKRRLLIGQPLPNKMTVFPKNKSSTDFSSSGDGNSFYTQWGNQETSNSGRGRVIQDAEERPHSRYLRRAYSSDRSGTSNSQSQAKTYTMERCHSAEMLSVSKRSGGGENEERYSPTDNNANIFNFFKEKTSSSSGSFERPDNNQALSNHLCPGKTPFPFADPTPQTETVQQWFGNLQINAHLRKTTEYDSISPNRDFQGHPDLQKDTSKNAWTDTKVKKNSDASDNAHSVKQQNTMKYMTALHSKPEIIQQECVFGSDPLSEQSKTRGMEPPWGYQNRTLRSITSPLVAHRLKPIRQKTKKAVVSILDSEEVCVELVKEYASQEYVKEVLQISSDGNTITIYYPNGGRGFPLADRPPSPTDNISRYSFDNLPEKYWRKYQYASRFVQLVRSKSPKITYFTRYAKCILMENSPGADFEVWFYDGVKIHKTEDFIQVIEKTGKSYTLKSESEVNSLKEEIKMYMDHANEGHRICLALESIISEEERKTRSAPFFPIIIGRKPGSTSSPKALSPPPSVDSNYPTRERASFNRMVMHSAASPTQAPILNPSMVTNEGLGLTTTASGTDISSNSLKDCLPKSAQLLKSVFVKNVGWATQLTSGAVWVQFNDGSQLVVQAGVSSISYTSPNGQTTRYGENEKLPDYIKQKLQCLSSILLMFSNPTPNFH
Chain of Wee1-like protein kinase (P30291 whole entry): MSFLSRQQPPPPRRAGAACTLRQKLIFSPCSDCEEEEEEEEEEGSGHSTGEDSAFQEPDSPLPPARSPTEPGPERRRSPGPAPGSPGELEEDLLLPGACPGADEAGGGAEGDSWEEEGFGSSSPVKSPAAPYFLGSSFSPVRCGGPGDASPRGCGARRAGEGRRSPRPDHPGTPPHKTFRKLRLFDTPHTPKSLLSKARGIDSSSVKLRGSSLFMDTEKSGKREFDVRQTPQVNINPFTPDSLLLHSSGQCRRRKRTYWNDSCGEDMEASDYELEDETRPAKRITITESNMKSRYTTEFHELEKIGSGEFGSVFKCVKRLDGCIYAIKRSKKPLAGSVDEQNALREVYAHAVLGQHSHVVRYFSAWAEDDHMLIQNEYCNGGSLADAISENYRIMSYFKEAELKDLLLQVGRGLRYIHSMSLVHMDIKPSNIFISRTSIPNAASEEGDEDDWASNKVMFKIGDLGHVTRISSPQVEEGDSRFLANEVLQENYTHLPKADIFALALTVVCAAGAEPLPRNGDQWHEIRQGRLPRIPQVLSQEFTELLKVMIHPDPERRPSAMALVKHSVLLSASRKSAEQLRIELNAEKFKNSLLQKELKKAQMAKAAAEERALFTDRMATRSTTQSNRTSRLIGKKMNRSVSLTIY
Chain of Ribosomal protein S6 kinase alpha-5 (O75582 whole entry): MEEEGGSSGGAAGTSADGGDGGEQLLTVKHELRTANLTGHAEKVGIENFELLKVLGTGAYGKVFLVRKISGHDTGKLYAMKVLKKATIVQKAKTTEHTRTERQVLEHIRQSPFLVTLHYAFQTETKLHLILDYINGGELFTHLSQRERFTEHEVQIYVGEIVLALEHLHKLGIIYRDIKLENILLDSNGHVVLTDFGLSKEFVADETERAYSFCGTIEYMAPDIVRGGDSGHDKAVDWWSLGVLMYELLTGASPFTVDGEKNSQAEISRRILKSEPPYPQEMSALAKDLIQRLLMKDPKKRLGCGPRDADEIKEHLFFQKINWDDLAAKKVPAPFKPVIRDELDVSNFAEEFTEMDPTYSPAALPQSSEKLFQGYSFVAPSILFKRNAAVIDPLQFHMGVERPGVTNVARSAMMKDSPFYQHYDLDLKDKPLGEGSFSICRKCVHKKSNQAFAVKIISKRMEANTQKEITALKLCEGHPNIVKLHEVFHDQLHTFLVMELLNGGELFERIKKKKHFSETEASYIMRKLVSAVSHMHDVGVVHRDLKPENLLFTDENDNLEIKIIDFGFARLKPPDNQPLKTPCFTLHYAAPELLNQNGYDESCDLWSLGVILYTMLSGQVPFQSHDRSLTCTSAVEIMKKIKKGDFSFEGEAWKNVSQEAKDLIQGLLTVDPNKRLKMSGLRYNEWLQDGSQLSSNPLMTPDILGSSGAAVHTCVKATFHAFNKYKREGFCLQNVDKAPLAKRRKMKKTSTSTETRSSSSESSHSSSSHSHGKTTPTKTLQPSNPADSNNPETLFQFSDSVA
Chain of Alpha-2B adrenergic receptor (Homo sapiens) (P18089 whole entry): as the sequence (P18089 whole entry) above

CN1C(=O)[C@@H](N2CCc3c(nn(Cc4ccccc4)c3Br)C2=O)COc2ccccc21 [TP-030-2]
2870 nM: Ki ([1]; read-out: Ki)
active: IC50 (HT-29) 1.3 nM | inhibition [37] 59.6%
inactive: inhibition [2] -1% | inhibition [3] 5% | inhibition [38] 21.6% | inhibition [39] 5.52% | inhibition [40] -4% | inhibition [41] 27%
1000 nM: IC50 [4] | IC50 [5] | IC50 (Aurora kinase A) | IC50 [6] | IC50 [7] | IC50 [8] | IC50 [9] | IC50 [10] | IC50 [11] | IC50 [12] | IC50 [13] | IC50 [14] | IC50 [15] | IC50 [16] | IC50 (Insulin receptor) | IC50 [17] | IC50 [18] | IC50 [19] | IC50 [20] | IC50 [21] | IC50 [22] | IC50 [23] | IC50 [24] | IC50 [25] | IC50 [26] | IC50 [27] | IC50 [28] | IC50 [29] | IC50 [30] | IC50 [31] | IC50 [32] | IC50 [33] | IC50 [34] | IC50 (Wee1-like protein kinase) | IC50 [35] | IC50 [36]
2820 nM: Ki ([1]; read-out: pKi (converted))
